For one test, the target named is T1, TLR7 (Homo sapiens, UniProt Q9NYK1).
T1 construct: expressed in transfected cells; host or cells: HEK/293 cells carrying TLR7 and an NF-kB luciferase reporter
T1 sequence (Q9NYK1 27-1049): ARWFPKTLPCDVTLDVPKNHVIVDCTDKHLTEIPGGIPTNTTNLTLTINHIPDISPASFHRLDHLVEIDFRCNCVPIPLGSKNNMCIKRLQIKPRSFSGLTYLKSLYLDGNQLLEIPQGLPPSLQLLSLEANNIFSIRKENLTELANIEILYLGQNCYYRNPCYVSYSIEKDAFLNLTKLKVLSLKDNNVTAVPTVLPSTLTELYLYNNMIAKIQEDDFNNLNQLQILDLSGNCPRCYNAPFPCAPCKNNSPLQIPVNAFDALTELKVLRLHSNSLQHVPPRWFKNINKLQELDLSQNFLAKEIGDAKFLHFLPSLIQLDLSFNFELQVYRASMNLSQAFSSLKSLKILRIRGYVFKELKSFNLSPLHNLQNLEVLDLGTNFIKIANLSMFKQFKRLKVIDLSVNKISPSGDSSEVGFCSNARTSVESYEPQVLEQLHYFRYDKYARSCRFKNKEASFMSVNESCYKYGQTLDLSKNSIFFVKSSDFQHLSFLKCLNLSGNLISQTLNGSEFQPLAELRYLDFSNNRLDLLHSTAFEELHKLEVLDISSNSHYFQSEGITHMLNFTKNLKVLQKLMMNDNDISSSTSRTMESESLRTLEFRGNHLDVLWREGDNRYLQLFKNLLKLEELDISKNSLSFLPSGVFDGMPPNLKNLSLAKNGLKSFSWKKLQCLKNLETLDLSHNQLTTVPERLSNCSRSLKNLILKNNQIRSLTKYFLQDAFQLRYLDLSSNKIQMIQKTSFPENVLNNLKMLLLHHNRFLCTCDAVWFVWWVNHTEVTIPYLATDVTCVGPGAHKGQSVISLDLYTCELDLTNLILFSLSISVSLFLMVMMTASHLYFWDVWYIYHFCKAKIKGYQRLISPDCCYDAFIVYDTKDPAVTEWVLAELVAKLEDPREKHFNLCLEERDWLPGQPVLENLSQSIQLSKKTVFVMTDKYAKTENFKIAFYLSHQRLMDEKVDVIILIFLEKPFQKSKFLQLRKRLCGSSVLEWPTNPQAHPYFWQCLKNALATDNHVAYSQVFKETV
Put plainly: HEK/293 TLR7 Cell Assay. The format is cell-based. Conditions: TLR7/NFKb HEK cells, R848 agonist 10 uM final concentration, Steady-Glo readout; read-out: TLR7 potency. An outline of the steps: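 Compounds added to HEK cells expressing TLR7 with an NFκB reporter 30 min ahead of 10 uM R848 challenge; luciferase signal (Steady-Glo) measured after 5 h, cells having been seeded 24 h earlier at 5000 per well.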

The target of a further test is T2, TLR8 (Homo sapiens, UniProt Q9NR97).
T2 construct: expressed in transfected cells; host or cells: HEK/293 reporter cells (NF-kB luciferase)
T2 sequence (Q9NR97 27-1041): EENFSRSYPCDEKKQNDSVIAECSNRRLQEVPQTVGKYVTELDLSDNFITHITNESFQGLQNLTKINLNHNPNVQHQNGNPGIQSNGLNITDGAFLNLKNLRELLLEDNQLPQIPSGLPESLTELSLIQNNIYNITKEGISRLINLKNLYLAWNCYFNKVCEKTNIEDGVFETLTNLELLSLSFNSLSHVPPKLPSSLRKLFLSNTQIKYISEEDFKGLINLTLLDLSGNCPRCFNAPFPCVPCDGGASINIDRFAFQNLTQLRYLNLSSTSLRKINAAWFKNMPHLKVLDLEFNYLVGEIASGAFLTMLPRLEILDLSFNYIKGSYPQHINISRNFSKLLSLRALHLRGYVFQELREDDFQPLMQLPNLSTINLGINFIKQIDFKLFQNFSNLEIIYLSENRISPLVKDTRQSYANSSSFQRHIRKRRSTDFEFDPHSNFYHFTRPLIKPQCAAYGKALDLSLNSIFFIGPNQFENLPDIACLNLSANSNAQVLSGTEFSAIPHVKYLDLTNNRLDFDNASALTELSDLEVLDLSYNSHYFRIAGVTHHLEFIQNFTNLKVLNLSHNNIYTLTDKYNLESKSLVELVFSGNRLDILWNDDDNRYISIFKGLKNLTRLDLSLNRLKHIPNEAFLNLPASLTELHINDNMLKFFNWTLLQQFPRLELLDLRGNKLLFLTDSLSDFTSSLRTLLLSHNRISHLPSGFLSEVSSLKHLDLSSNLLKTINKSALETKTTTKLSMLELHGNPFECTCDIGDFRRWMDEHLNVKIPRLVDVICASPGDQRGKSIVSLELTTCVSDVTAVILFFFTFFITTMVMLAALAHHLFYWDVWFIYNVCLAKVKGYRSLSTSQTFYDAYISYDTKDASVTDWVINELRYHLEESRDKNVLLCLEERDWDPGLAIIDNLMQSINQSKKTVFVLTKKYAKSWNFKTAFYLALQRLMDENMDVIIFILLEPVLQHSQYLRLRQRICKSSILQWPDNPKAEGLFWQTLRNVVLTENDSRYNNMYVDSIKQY
Briefly: HEK/293 TLR8 Cell Assay. The class given is cell-based. Conditions: HEK cells, R848 agonist 30 uM final concentration, Steady-Glo readout; read-out: TLR8 potency.

Structures are written as SMILES.

For the molecule `C[C@@H]1CN(c2cnc(C#N)c3ncccc23)C[C@H](CNC(=O)C2(F)CCNC2)O1` (stereo partly drawn) [Example 332, N-{[(2S,6R)-4-(8-cyano-1,7-naphthyridin-5-yl)-6-methylmorpholin-2-yl]methyl}-3-fluoropyrrolidine-3-carboxamide], the IC50 on TLR7 was 75 to 150 nM; on TLR8 it was below 75 nM.
For `C[C@@H]1CN(c2cnc(C#N)c3ncccc23)C[C@H](CN2CCS(=O)(=O)CC2)O1` [Example 376, 5-[(2S,6R)-2-(1,1-Dioxo-1lambda6-thiomorpholin-4-ylmethyl)-6-methyl-morpholin-4-yl]-[1,7]naphthyridine-8-carbonitrile], the IC50 on TLR7 and on TLR8 was above 150 nM throughout.
As for `Cc1ncc(N2C[C@@H](C)C[C@@H](NC(=O)CC3(N)CC3)C2)c2cccnc12` [Example 121, 2-(1-aminocyclopropyl)-N-[(3R,5S)-5-methyl-1-(8-methyl-1,7-naphthyridin-5-yl)piperidin-3-yl]acetamide], the IC50 on TLR7 was 75 to 150 nM; at TLR8, below 75 nM.
On to `C[C@H]1C[C@@H](n2ccnn2)CN(c2ccc(C(F)(F)F)c3nccnc23)C1` (racemic) [Example 154, 5-[cis-3-methyl-5-(1H-1,2,3-triazol-1-yl)piperidin-1-yl]-8-(trifluoromethyl)quinoxaline], for which the results for the IC50 on TLR7 and at TLR8 were above 150 nM and 75 to 150 nM, respectively.
For `C[C@H]1C[C@@H](NC(=O)CN2CCN(C)CC2)CN(c2ccc(C#N)c3ncncc23)C1` [Example 89, N-[(3R,5S)-1-(8-cyanoquinazolin-5-yl)-5-methylpiperidin-3-yl]-2-(4-methylpiperazin-1-yl)acetamide], the results for the IC50 at TLR7 and at TLR8 were below 75 nM and above 150 nM, respectively.
Take `N#Cc1ccc(N2C[C@@H](C(F)(F)F)O[C@@H](C(=O)NC[C@@H](O)CO)C2)c2nccnc12` (single isomer, unassigned) [Example 282]: the IC50 on TLR7 was 75 to 150 nM; at TLR8, above 150 nM.
`C[C@H]1C[C@@H](NS(=O)(=O)NCCC2CCN(C)CC2)CN(c2ccc(C(F)(F)F)c3ncccc23)C1` [Example 201, N-[2-(1-methylpiperidin-4-yl)ethyl]{[(3R,5S)-5-methyl-1-[8-(trifluoromethyl)quinolin-5-yl]piperidin-3-yl]amino}sulfonamide]: the IC50 at TLR7 and at TLR8 was below 75 nM each time.
Regarding `Cc1c(F)cc(N2C[C@H](NC(=O)[C@@H]3CCCN3)C[C@H](C(F)(F)F)C2)c2cccnc12` [Example 115, (2S)—N-[(3R,5S)-1-(7-fluoro-8-methylquinolin-5-yl)-5-(trifluoromethyl)piperidin-3-yl]pyrrolidine-2-carboxamide], the results for the IC50 on TLR7 and on TLR8 were above 150 nM and below 75 nM, respectively.
Consider `C[C@H]1C[C@@H](NC(=O)CCC2CCN(C)CC2)CN(c2ccc(C#N)c3ncncc23)C1` [Example 191, N-[(3R,5S)-1-(8-Cyano-quinazolin-5-yl)-5-methyl-piperidin-3-yl]-3-(1-methyl-piperidin-4-yl)-propionamide], for which the IC50 at TLR7 and at TLR8 was 75 to 150 nM each time.
As for `C[C@@H]1CN(c2cnc(C#N)c3ncccc23)C[C@H](CNCC2(O)COC2)O1` [Example 378, 5-((2S,6R)-2-{[(3-Hydroxy-oxetan-3-ylmethyl)-amino]-methyl}-6-methyl-morpholin-4-yl)-[1,7]naphthyridine-8-carbonitrile], the IC50 at TLR7 and on TLR8 was above 150 nM each time.
Take `C[C@H]1C[C@@H](NC(=O)CC2(F)CCNCC2)CN(c2ccc(C#N)c3nccnc23)C1` [Example 114, N-[(3R,5S)-1-(8-cyanoquinoxalin-5-yl)-5-methylpiperidin-3-yl]-2-(4-fluoropiperidin-4-yl)acetamide]: the IC50 on TLR7 and at TLR8 was below 75 nM each time.
As to `Cc1ncc(N2C[C@H](NC(=O)C(F)C3CCNC3)C[C@H](C(F)(F)F)C2)c2cccnc12` (stereo partly drawn) [Example 137, 2-Fluoro-N-[(3R,5S)-1-(8-methyl-[1,7]naphthyridin-5-yl)-5-trifluoromethyl-piperidin-3-yl]-2-pyrrolidin-3-yl-acetamide], the IC50 at TLR7 and on TLR8 was below 75 nM in each case.
On to `C[C@H]1C[C@@H](NCCC(=O)N2CC(O)C2)CN(c2ccc(C(F)(F)F)c3ncccc23)C1` [Example 53, 1-(3-Hydroxy-azetidin-1-yl)-3-[(3R,5S)-5-methyl-1-(8-trifluoromethyl-quinolin-5-yl)-piperidin-3-ylamino]-propan-1-one], for which the IC50 is below 75 nM at TLR7 and 75 to 150 nM on TLR8.
The matching figures for `C[C@@H]1CN(c2cnc(C#N)c3ncccc23)C[C@H](Cn2cc(C(=O)O)cn2)O1` [Example 365, 1-[(2R,6R)-4-(8-Cyano-[1,7]naphthyridin-5-yl)-6-methyl-morpholin-2-ylmethyl]-1H-pyrazole-4-carboxylic acid]: below 75 nM and below 75 nM.
Turning to `Cc1cc(CC(=O)N[C@@H]2C[C@H](C)CN(c3ccc(C#N)c4nccnc34)C2)on1` [Example 74, N-[(3R,5S)-1-(8-cyanoquinoxalin-5-yl)-5-methylpiperidin-3-yl]-2-(3-methyl-1,2-oxazol-5-yl)acetamide], the IC50 at TLR7 and on TLR8 was below 75 nM throughout.
On to `C[C@H]1C[C@@H](NC(=O)Cc2cnn(C)c2)CN(c2cc(F)c(C#N)c3ncccc23)C1` [Example 58, N-[(3R,5S)-1-(8-Cyano-7-fluoro-quinolin-5-yl)-5-methyl-piperidin-3-yl]-2-(1-methyl-1H-pyrazol-4-yl)-acetamide], for which the IC50 on TLR7 was above 150 nM; on TLR8 it was 75 to 150 nM.
As to `C[C@H]1C[C@@H](NC(=O)CC2(F)CCN(C)CC2)CN(c2ccc(C#N)c3nccnc23)C1` [Example 192, N-[(3R,5S)-1-(8-Cyano-quinoxalin-5-yl)-5-methyl-piperidin-3-yl]-2-(4-fluoro-1-methyl-piperidin-4-yl)-acetamide], the IC50 at TLR7 and on TLR8 was below 75 nM throughout.
For `C[C@@H]1CN(c2ccc(C#N)c3nccnc23)C[C@H](CNC(=O)[C@@H](C)O)O1` (single isomer, unassigned) [Example 340], the IC50 on TLR7 is above 150 nM; on TLR8 it was below 75 nM.
In the case of `C[C@H]1C[C@@H](N)CN(c2cc(F)c(C#N)c3ncccc23)C1` [Example 57, 5-((3R,5S)-3-Amino-5-methyl-piperidin-1-yl)-7-fluoro-quinoline-8-carbonitrile], the IC50 on TLR7 and at TLR8 was below 75 nM throughout.

The record behind these values is US20210300940A1 (Merck Patent GmbH, priority 2018, published 2021).
